Solubility data for 70 compounds are collected here from the OPERA property sets (Mansouri et al. 2018).

Converted amounts (≈) assume the structure as drawn.

The conditions of the first data set: 25 °C.
Take `O=C1OCc2ccc([N+](=O)[O-])cc21`: the solubility (in general, the dissolved amount per volume that the medium holds) is 2.23 mM (≈ 0.4 mg/mL).
For `C[C@]12CCc3c(ccc4cc(O)ccc34)[C@@H]1CCC2=O`, the solubility is 0.00571 mM (≈ 0.00152 mg/mL). Compared with the last compound, the solubility is about 390-fold lower.
On the same count and under the same terms, the result for `Clc1cccc(-c2ccccc2)c1` reads 0.0192 mM (≈ 0.00363 mg/mL); that for `COc1ccccc1`, 9.62 mM (≈ 1.04 mg/mL); that for `OC(c1ccccc1)c1ccccc1`, 2.82 mM (≈ 0.52 mg/mL).
Same read-out and setting: the result for `CCCCCCC(=O)O` reads 21.6 mM (≈ 2.82 mg/mL); that for `c1ccc2c(c1)Nc1ccccc1S2`, 0.00798 mM (≈ 0.00159 mg/mL); that for `C[C@]12CC[C@H]3C(=CCc4cc(O)ccc43)[C@@H]1CCC2=O`, 0.00525 mM (≈ 0.00141 mg/mL).
The compound `Clc1cccc(-c2cccc(Cl)c2Cl)c1Cl` displayed a solubility of 5.34e-05 mM (≈ 1.56e-05 mg/mL).
Still for that read-out and setting: as for `c1ccsc1`, the figure is 35.8 mM (≈ 3.01 mg/mL); as for `O=C(O)CCCCCCC(=O)O`, 67.9 mM (≈ 11.8 mg/mL).
`Cc1cccc2c(C)cccc12` came in with a solubility of 0.0175 mM (≈ 0.00274 mg/mL).
On the same count and under the same terms, as for `CC=CC(C)O` (stereo not given), the figure is 1040 mM (≈ 89.2 mg/mL); as for `Fc1ccccc1CCl`, 2.88 mM (≈ 0.416 mg/mL); as for `CC1CCCCC1`, 0.152 mM (≈ 0.015 mg/mL).
The same measure, in the same setting: the result for `CCC(C)c1ccc(O)cc1` (stereo not given) reads 6.39 mM (≈ 0.96 mg/mL); that for `Clc1ccc(-c2cccc(Cl)c2)cc1`, 0.000398 mM (≈ 8.88e-05 mg/mL); that for `CCCC(=O)CCC`, 28 mM (≈ 3.2 mg/mL).
Still for that read-out and setting: as for `O=C(O)C(c1ccccc1)c1ccccc1`, the figure is 0.598 mM (≈ 0.127 mg/mL).
With `Cc1cccc(O)c1C`, the solubility worked out at 37.4 mM (≈ 4.57 mg/mL).
The same measure, in the same setting: the result for `C=CCCCCCCC` reads 0.00887 mM (≈ 0.00112 mg/mL); that for `CCC(CC)CO`, 39.1 mM (≈ 4 mg/mL).
Same read-out and setting: as for `CCCC(C)O` (stereo not given), the figure is 506 mM (≈ 44.6 mg/mL).
On the same count and under the same terms, as for `NC(=O)CC[C@H](N)C(=O)O`, the figure is 283 mM (≈ 41.3 mg/mL).
On to `CC1CCC(C(C)C)C(O)C1` (stereo not given), for which the solubility was 2.91 mM (≈ 0.455 mg/mL).
`CCCCC=O` showed a solubility of 136 mM (≈ 11.7 mg/mL).
Same read-out and setting: the result for `C1OCOCO1` reads 1940 mM (≈ 175 mg/mL); that for `CCC(C(=O)O)C(=O)O`, 5390 mM (≈ 712 mg/mL); that for `C=CCCC`, 2.11 mM (≈ 0.148 mg/mL).
For the compound `Cc1cc(Cl)ccc1OCC(=O)O`, the solubility stood at 3.14 mM (≈ 0.63 mg/mL). The solubility values of the last two compounds are within 1.5-fold of each other.
Same read-out and setting: the result for `Cc1ccc2cc(C)ccc2c1` reads 0.0128 mM (≈ 0.002 mg/mL).
Same read-out and setting: the result for `C1=CCCC1` reads 7.85 mM (≈ 0.535 mg/mL); that for `CCc1ccc2ccccc2c1`, 0.0513 mM (≈ 0.00801 mg/mL); that for `CCOC(=O)C=Cc1ccccc1`, 1.01 mM (≈ 0.178 mg/mL).
The same measure, in the same setting: the result for `CCCC(C)(C)C` reads 0.0439 mM (≈ 0.0044 mg/mL); that for `Fc1ccc(I)cc1`, 0.749 mM (≈ 0.166 mg/mL).
The compound `CC(=O)CC(C)C` showed a solubility of 190 mM (≈ 19 mg/mL).
The same measure, in the same setting: as for `CCCC(C)CC` (stereo not given), the figure is 0.0494 mM (≈ 0.00495 mg/mL).
Same read-out and setting: the result for `C#CCC` reads 53.1 mM (≈ 2.87 mg/mL); that for `CC(=O)[C@@]1(C)CC[C@H]2[C@@H]3C=C(C)C4=CC(=O)CC[C@]4(C)[C@H]3CC[C@@]21C`, 0.00534 mM (≈ 0.00182 mg/mL).
The same measure, in the same setting: as for `NS(=O)(=O)c1cc2c(cc1C(F)(F)F)NC(Cc1ccccc1)NS2(=O)=O` (stereo not given), the figure is 0.256 mM (≈ 0.108 mg/mL); as for `O=C(O)c1ccccc1[N+](=O)[O-]`, 47 mM (≈ 7.85 mg/mL); as for `CCOC(=O)C(C)N(C(=O)c1ccccc1)c1ccc(Cl)c(Cl)c1` (stereo not given), 0.0546 mM (≈ 0.02 mg/mL).
`CCCC(C)=O` yielded a solubility of 499 mM (≈ 43 mg/mL).
`Cc1cc(-c2ccc(N)c(C)c2)ccc1N` returned a solubility of 6.12 mM (≈ 1.3 mg/mL). Compared with the last compound, the solubility is about 82-fold lower.
Regarding `c1ccc2c(c1)Oc1ccccc1O2`, the solubility amounted to 0.00489 mM (≈ 0.000901 mg/mL).
For `CCCCCBr`, the solubility amounted to 0.841 mM (≈ 0.127 mg/mL).
On the same count and under the same terms, the result for `C=C(C)CCC` reads 0.927 mM (≈ 0.078 mg/mL); that for `CC(C)(OO)c1ccccc1`, 91.3 mM (≈ 13.9 mg/mL); that for `CCCC[C@@H](O)CC`, 34.4 mM (≈ 4 mg/mL).
Regarding `CC(C)CC(C)C`, the solubility came to 0.0549 mM (≈ 0.0055 mg/mL). Compared with the last compound, the solubility is about 630-fold lower.
Same read-out and setting: as for `O=C=O`, the figure is 33.5 mM (≈ 1.47 mg/mL).
In turn, `Clc1cc(Cl)c(-c2ccccc2)c(Cl)c1` displayed a solubility of 0.000978 mM (≈ 0.000252 mg/mL). This solubility is about 34000-fold lower than that of the compound before.
`CC/C(=C(/CC)c1ccc(O)cc1)c1ccc(O)cc1` displayed a solubility of 0.0447 mM (≈ 0.012 mg/mL).
Same read-out and setting: as for `Clc1ccc(Cl)c(-c2cc(Cl)ccc2Cl)c1`, the figure is 5.24e-05 mM (≈ 1.53e-05 mg/mL); as for `CCCN(CCC)CCC`, 5.22 mM (≈ 0.748 mg/mL).
On the same count and under the same terms, the result for `C=CC#N` reads 1400 mM (≈ 74.5 mg/mL); that for `Clc1cccc2c1Oc1ccccc1O2`, 0.00191 mM (≈ 0.000417 mg/mL); that for `c1cc2cccc3c4cccc5cccc(c(c1)c23)c54`, 1.59e-06 mM (≈ 4e-07 mg/mL).

The data set is the same for the next values; noted with them: 27 °C.
As to `Cc1cc2c3ccccc3ccc2c2ccccc12`, the solubility was found to be 0.000268 mM (≈ 6.5e-05 mg/mL).
Same read-out and setting: the result for `c1cc2c3c(c1)ccc1cccc(c13)C2` reads 0.00578 mM (≈ 0.0011 mg/mL).

The same data set, now with this note: 28 °C.
Compound `O=C(O)CCCC(=O)O` registered a solubility of 12100 mM (≈ 1600 mg/mL).
In turn, `CCOC(=O)[C@H](Cc1ccccc1)NC(C)=O` had a solubility of 17.6 mM (≈ 4.13 mg/mL). Compared with the last compound, the solubility is about 690-fold lower.
On the same count and under the same terms, as for `CCOC(=O)[C@H](Cc1ccc(O)cc1)NC(C)=O`, the figure is 13.8 mM (≈ 3.48 mg/mL); as for `c1ccc2c(c1)CCCC2`, 0.354 mM (≈ 0.0468 mg/mL).

The same data set, now with this note: 30 °C.
The compound `CN=C(O)Oc1cccc(C)c1` showed a solubility of 15.7 mM (≈ 2.6 mg/mL). That is a millimolar value.
Still for that read-out and setting: as for `NS(=O)(=O)c1cc2c(cc1Cl)N=CNS2(=O)=O`, the figure is 0.899 mM (≈ 0.266 mg/mL); as for `COc1ccc2ccc(=O)oc2c1CC=C(C)C`, 0.0491 mM (≈ 0.012 mg/mL).
`C=CCCCCCCCCC(=O)O` yielded a solubility of 0.4 mM (≈ 0.0737 mg/mL).
The same measure, in the same setting: the result for `COC(=O)c1ccccc1O` reads 48.6 mM (≈ 7.4 mg/mL).
